Columns and labels:
[1] = molecular target: recombinant human dipeptidyl peptidase 4 (rhDPP4) (Homo sapiens, UniProt P27487); experiment: rhDPP4 inhibitor screening experiment; format: biochemical; details: Gly-Pro-aminofluorescein substrate, 1 hour at room temperature
Source text: To evaluate the inhibitory activity of compounds against recombinant human dipeptidyl peptidase 4 (rhDPP4) by measuring the half-inhibitory concentration (IC50) values of the compounds. In the experiment, rhDPP4 was used to catalyze the generation of […] from substrate, the substrate was a luminescent precursor […], and the substrate and luciferase were reacted to generate a light signal, the intensity of the light signal was proportional to the enzyme activity.
• 1) The gradient diluted compounds (4-fold fold-dilution, 10 assay concentrations) were transferred 250 nL into a 384-well plate (PerkingElmer-6007299) using a non-contact nano-acoustic pipetting system (ECHO), and dimethyl sulfoxide (DMSO) concentration was 0.5% in the final reaction system. Blank control wells (containing DMSO, substrate and 10 mM Tris-HCl) and positive control wells (containing DMSO, substrate and rhDPP4) were set up. • 2) The pre-dispensed frozen buffer containing luciferase was removed and restored to room temperature, and then the substrate was added to configure a working solution with a substrate concentration of 20 μM. RhDPP4 was prepared as a working solution of 0.2 ng/mL using 10 mM Tris-HCl (pH 8.0) aqueous solution. • 3) 25 μL of working solution containing 20 μM substrate and 25 μL of working solution containing 0.2 ng/mL rhDPP4 were added to a 384-well plate with the addition of the compound, then the mixture was centrifuged for 30 s at 1000 rpm, the plate was sealed with aluminum foil sealing film and incubated for 1 hour at room temperature. • 4) The intensity of the light signal was detected by EnVision, a multifunctional microplate reader. The raw data were used to calculate the inhibition of rhDPP4 activity by the compound. % of inhibition activity=100−(compound well signal value−blank control well signal value)/(positive control well signal value−blank control well signal value)*100. • The percent of inhibition was imported into GraphPad Prism software for data processing to derive the corresponding dose-effect curves and to derive the IC50 values of the tested compounds.

Human-SGLT2 = molecular target: T1, Human-SGLT2 (Homo sapiens, UniProt P31639); experiment: SGLT2 glucose transport assay ([14C]-labeled glucose uptake); format: cell-based; details: cells stably expressing Human-SGLT2, 37° C., 2 hours
T1 sequence (P31639 1-672): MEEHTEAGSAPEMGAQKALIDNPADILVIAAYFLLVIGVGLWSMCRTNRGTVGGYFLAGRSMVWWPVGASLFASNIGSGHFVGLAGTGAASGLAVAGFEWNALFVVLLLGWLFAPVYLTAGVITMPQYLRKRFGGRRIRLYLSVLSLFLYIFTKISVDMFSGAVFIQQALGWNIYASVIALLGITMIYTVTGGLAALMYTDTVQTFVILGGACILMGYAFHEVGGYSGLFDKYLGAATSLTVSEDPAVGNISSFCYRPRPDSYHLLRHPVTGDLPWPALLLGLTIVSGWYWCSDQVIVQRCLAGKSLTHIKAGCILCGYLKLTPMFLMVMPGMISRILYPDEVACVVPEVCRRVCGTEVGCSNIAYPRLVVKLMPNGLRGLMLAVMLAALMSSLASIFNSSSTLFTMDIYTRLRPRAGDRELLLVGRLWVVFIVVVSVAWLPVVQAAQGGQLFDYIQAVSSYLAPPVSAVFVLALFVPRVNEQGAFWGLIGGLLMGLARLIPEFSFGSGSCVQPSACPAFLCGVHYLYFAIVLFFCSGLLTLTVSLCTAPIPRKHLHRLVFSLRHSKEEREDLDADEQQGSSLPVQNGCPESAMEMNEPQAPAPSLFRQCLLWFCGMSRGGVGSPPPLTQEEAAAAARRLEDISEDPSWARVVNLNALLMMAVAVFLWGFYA
Method: To test the effect of compounds on the glucose transport activity of SGLT2 transporters by measuring the amount of [^14C]-labeled glucose entering highly expressed Human-SGLT2 cells.
The cells stably expressing Human-SGLT2 used for the experiments were constructed by WuXi AppTec Shanghai. SGLT2 cells were plated in 96-well cell culture plates (Greiner) and cultured overnight at 5% CO2, 37° C.
Experimental buffer: 10 mM 4-hydroxyethylpiperazine ethanesulfonic acid (HEPES), 1.2 mM magnesium chloride (MgCl2), 4.7 mM potassium chloride (KCl), 2.2 mM calcium chloride (CaCl2) and 120 mM sodium chloride (NaCl).
Termination buffer: 10 mM 4-hydroxyethylpiperazine ethanesulfonic acid (HEPES), 1.2 mM magnesium chloride (MgCl2), 4.7 mM potassium chloride (KCl), 2.2 mM calcium chloride (CaCl2), 120 mM sodium chloride (NaCl) and 1 μM LX4211.
The compounds were diluted with 100% dimethyl sulfoxide (DMSO) at a starting concentration of 10 μM, 8 points of 5-fold serial gradient dilution was made.
6 μM [^14C]-labeled methyl α-D-glucopyranoside was prepared with experimental buffer.
Cells were treated with 49 μL of experimental buffer, 1 μL of gradient-diluted compound, and 50 μL of 6 μM [^14C]-isotope-labeled glucose solution at 37° C. for 2 hours.
The liquid in the wells was aspirated and the cells were washed 3 times with termination buffer.
The cells were lysed with 50 μL of 10% sodium hydroxide solution, and the cell lysate was aspirated into a scintillation tube, and 2 mL of scintillation solution was added.
Readings were taken with an isotope detector (Tricarb).
The data were calculated by GraphPad Prism 5.0 software using the formula: log (inhibitor) vs. response—Variable slope to obtain the IC50 values of the tested compounds, and the experimental results are shown in Table 5.

[2] = In vivo DMPK study in mice; details: male C57 mice; for Oral DNAUC (AUCPO/Dose): 10 mg/kg oral; for bioavailability / Cmax / clearance / half-life / Vd: mouse, plasma; for bioavailability: 1 mg/kg intravenous and 10 mg/kg oral, read-out: F % (oral bioavailability); for Cmax / clearance / half-life / Vd: single dose, 1 mg/kg intravenous or 10 mg/kg oral; for clearance: read-out: Cl (clearance rate); for half-life: read-out: T1/2 (half-life) (converted); for Vd: read-out: Vdss (volume of distribution)
Source text: Experimental purpose: Male C57 mice were used as test animals to determine blood concentrations of compounds and assess pharmacokinetic behavior after a single dose.
Experimental procedure: Six healthy adult male C57 mice were selected, three of them for the intravenous injection group and three of them for the oral group. The compounds to be tested were mixed with an appropriate amount of intravenous injection group solvent (20% polyethylene glycol-400 (PEG400)/10% polyethylene glycol-15 hydroxystearate (solutol)/70% H2O), the mixture was vortexed and sonicated to obtain 1 mg/mL clarified solution, then the clarified solution was filtered through a microporous membrane and prepared for use; solvent for the oral group was 20% polyethylene glycol-400 (PEG400)/10% polyethylene glycol-15 hydroxystearate (solutol)/70% H2O, and the compounds to be tested were mixed with the solvent, then the mixture was vortexed and sonicated to obtain 1 mg/mL clarified solution. After 1 mg/kg intravenous administration or 10 mg/kg oral administration in mice, whole blood was collected for a certain period of time, then the plasma was prepared to obtain, and the drug concentration was analyzed by LC-MS/MS method, then the pharmacokinetic parameters were calculated using Phoenix WinNonlin software (Pharsight, USA).

Sequence of recombinant human dipeptidyl peptidase 4 (rhDPP4) (P27487 whole entry): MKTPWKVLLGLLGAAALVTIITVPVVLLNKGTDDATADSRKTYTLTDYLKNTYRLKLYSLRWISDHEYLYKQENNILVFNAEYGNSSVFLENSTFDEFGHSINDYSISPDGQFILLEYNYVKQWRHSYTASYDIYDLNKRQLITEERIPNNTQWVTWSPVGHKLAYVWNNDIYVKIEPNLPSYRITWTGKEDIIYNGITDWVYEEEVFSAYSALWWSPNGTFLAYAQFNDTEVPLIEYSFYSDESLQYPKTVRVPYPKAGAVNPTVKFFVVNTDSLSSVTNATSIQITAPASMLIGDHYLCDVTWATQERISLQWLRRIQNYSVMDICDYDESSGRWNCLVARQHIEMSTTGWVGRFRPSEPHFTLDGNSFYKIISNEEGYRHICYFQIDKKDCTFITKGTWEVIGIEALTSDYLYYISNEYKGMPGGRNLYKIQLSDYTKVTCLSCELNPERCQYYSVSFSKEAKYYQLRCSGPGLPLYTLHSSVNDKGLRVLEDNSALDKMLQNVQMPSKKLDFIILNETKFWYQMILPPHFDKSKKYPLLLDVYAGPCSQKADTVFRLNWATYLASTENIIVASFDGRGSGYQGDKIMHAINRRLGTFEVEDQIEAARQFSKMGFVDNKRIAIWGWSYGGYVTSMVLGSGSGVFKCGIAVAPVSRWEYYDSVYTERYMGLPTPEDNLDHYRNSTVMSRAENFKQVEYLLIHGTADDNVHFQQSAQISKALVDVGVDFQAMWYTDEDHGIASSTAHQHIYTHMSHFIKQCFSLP

Row | IC50 [1] | IC50 (Human-SGLT2) | Oral DNAUC (AUCPO/Dose) [2] | bioavailability [2] | Cmax [2] | clearance [2] | half-life [2] | Vd [2] | SMILES
1 | 31 nM | 21.8 nM | 194.8 nM · h/mpk | 21.4% | 308 nM | 31.4 mL/min/kg | 443 min | 12.2 L/kg | CS[C@H]1O[C@@H](c2ccc(F)c(Cc3ccc(O[C@@H]4CCN([C@H]5CO[C@H](c6cc(F)ccc6F)[C@@H](N)C5)C4)cc3)c2)[C@H](O)[C@@H](O)[C@@H]1O [WX001]
2 | 26.9 nM | 7.02 nM | 151.3 nM · h/mpk | 18.7% | 250 nM | 29.1 mL/min/kg | 630 min | 12 L/kg | CS[C@H]1O[C@@H](c2cc(Cc3ccc(O[C@@H]4CCN([C@H]5CO[C@H](c6cc(F)ccc6F)[C@@H](N)C5)C4)cc3)c(F)cc2F)[C@H](O)[C@@H](O)[C@@H]1O [WX006]
